Assay results taken from US11076594B2, “Pyrazolone compound or salt thereof, preparation method therefor, herbicide composition and use thereof” (QINGDAO KINGAGROOT CHEMICAL COMPOUNDS CO., LTD., priority 2015, dated 2021).

How the values were obtained:
Type in all cases: in vivo
[1] = tested on: bidens tripartite; assay: weed control effect evaluation in rice field; design: key: Level 10: completely dead; Level 9: above 95% growth control rate; Level 8: above 90% growth control rate; Level 7: above 80% growth control rate; Level 6: above 70% growth control rate; Level 5: above 60% growth control rate; Level 4: above 50% growth control rate; Level 3: above 20% growth control rate; Level 2: 5%-20% growth control rate; Level 1: below 5% growth control rate; details: 125 g/ha ai; rice field pot; 14 days after treatment; resistant to pyrazosulfuron-ethyl
Text: (§1) The activity level standard of harmful plant destruction (i.e. growth control rate) is as follows: Rice field soil was loaded into a 1/1,000,000 ha pot. The seeds of echinochloa, scirpus juncoides, bidens tripartite and sagittaria trifolia were sowed and gently covered with soil, then left to stand still in greenhouse in the state of 0.5-1 cm of water storage. The tuber of sagittaria trifolia was planted in the next day or 2 days later. It was kept at 3-4 cm of water storage thereafter. The weeds were treated by dripping the WP or SC water diluents prepared according to the common preparation method of the compounds of the present invention with pipette homogeneously to achieve specified effective amount when echinochloa, scirpus juncoides and bidens tripartite reached 0.5 leaf stage and sagittaria trifolia reached the time point of primary leaf stage. The fertility condition of echinochloa, scirpus juncoides, bidens tripartite and sagittaria trifolia 14 days after the treatment of the compound of the invention and the fertility condition of rice 21 days after the treatment of the compound of the invention respectively with the naked eye.

[2] = tested on: scirpus juncoides; assay: weed control effect evaluation in rice field; design: key: Level 10: completely dead; Level 9: above 95% growth control rate; Level 8: above 90% growth control rate; Level 7: above 80% growth control rate; Level 6: above 70% growth control rate; Level 5: above 60% growth control rate; Level 4: above 50% growth control rate; Level 3: above 20% growth control rate; Level 2: 5%-20% growth control rate; Level 1: below 5% growth control rate; details: 125 g/ha ai; rice field pot; 14 days after treatment; resistant to pyrazosulfuron-ethyl
Text: as §1

[3] = tested on: sagittaria trifolia; assay: weed control effect evaluation in rice field; design: key: Level 10: completely dead; Level 9: above 95% growth control rate; Level 8: above 90% growth control rate; Level 7: above 80% growth control rate; Level 6: above 70% growth control rate; Level 5: above 60% growth control rate; Level 4: above 50% growth control rate; Level 3: above 20% growth control rate; Level 2: 5%-20% growth control rate; Level 1: below 5% growth control rate; details: 125 g/ha ai; rice field pot; 14 days after treatment; resistant to pyrazosulfuron-ethyl
Text: as §1

[4] = tested on: echinochloa; assay: weed control effect evaluation in rice field; design: key: Level 10: completely dead; Level 9: above 95% growth control rate; Level 8: above 90% growth control rate; Level 7: above 80% growth control rate; Level 6: above 70% growth control rate; Level 5: above 60% growth control rate; Level 4: above 50% growth control rate; Level 3: above 20% growth control rate; Level 2: 5%-20% growth control rate; Level 1: below 5% growth control rate; details: 125 g/ha ai; rice field pot; 14 days after treatment; resistant to pyrazosulfuron-ethyl
Text: as §1

[5] = tested on: corn; assay: post-emergence stage experiment, crop (Table 1); details: post-emergence spray at 4-5 leaf stage, 250 g/ha active ingredient with 450 kg/ha water, rated after 3 weeks in greenhouse
Outline: (§2)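 Fresh-weight-based growth control rate was assessed 3 weeks after spraying. Test compound, dissolved in acetone, with tween 80 added and diluted in water, was sprayed onto greenhouse-grown, pot-cultured weeds and crop plants at 4-5 leaves, 2-3 weeks post-sowing.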

[6] = tested on: wheat; assay: post-emergence stage experiment, crop (Table 1); details: post-emergence spray at 4-5 leaf stage, 250 g/ha active ingredient with 450 kg/ha water, rated after 3 weeks in greenhouse
Outline: as §2

[7] = tested on: foxtail; assay: weed control effect in post-emergence stage (Table 1); design: key: Level 10: completely dead; Level 9: above 95% growth control rate; Level 8: above 90% growth control rate; Level 7: above 80% growth control rate; Level 6: above 70% growth control rate; Level 5: above 60% growth control rate; Level 4: above 50% growth control rate; Level 3: above 20% growth control rate; Level 2: 5%-20% growth control rate; Level 1: below 5% growth control rate; details: post-emergence spray at 4-5 leaf stage, 250 g/ha active ingredient with 450 kg/ha water, rated after 3 weeks in greenhouse
Outline: as §2

[8] = tested on: bidens bipinnata; assay: as above; design: key: Level 10: completely dead; Level 9: above 95% growth control rate; Level 8: above 90% growth control rate; Level 7: above 80% growth control rate; Level 6: above 70% growth control rate; Level 5: above 60% growth control rate; Level 4: above 50% growth control rate; Level 3: above 20% growth control rate; Level 2: 5%-20% growth control rate; Level 1: below 5% growth control rate; details: post-emergence spray at 4-5 leaf stage, 250 g/ha active ingredient with 450 kg/ha water, rated after 3 weeks in greenhouse
Outline: as §2

[9] = tested on: rorippa indica; assay: as above; design: key: Level 10: completely dead; Level 9: above 95% growth control rate; Level 8: above 90% growth control rate; Level 7: above 80% growth control rate; Level 6: above 70% growth control rate; Level 5: above 60% growth control rate; Level 4: above 50% growth control rate; Level 3: above 20% growth control rate; Level 2: 5%-20% growth control rate; Level 1: below 5% growth control rate; details: post-emergence spray at 4-5 leaf stage, 250 g/ha active ingredient with 450 kg/ha water, rated after 3 weeks in greenhouse
Outline: as §2

[10] = tested on: crab grass; assay: as above; design: key: Level 10: completely dead; Level 9: above 95% growth control rate; Level 8: above 90% growth control rate; Level 7: above 80% growth control rate; Level 6: above 70% growth control rate; Level 5: above 60% growth control rate; Level 4: above 50% growth control rate; Level 3: above 20% growth control rate; Level 2: 5%-20% growth control rate; Level 1: below 5% growth control rate; details: post-emergence spray at 4-5 leaf stage, 250 g/ha active ingredient with 450 kg/ha water, rated after 3 weeks in greenhouse
Outline: as §2

[11] = tested on: echinochloa; assay: as above; design: key: Level 10: completely dead; Level 9: above 95% growth control rate; Level 8: above 90% growth control rate; Level 7: above 80% growth control rate; Level 6: above 70% growth control rate; Level 5: above 60% growth control rate; Level 4: above 50% growth control rate; Level 3: above 20% growth control rate; Level 2: 5%-20% growth control rate; Level 1: below 5% growth control rate; details: post-emergence spray at 4-5 leaf stage, 250 g/ha active ingredient with 450 kg/ha water, rated after 3 weeks in greenhouse
Outline: as §2

[12] = tested on: Indian mallow; assay: as above; design: key: Level 10: completely dead; Level 9: above 95% growth control rate; Level 8: above 90% growth control rate; Level 7: above 80% growth control rate; Level 6: above 70% growth control rate; Level 5: above 60% growth control rate; Level 4: above 50% growth control rate; Level 3: above 20% growth control rate; Level 2: 5%-20% growth control rate; Level 1: below 5% growth control rate; details: post-emergence spray at 4-5 leaf stage, 250 g/ha active ingredient with 450 kg/ha water, rated after 3 weeks in greenhouse
Outline: as §2

[13] = tested on: rice; assay: post-emergence stage experiment, crop (Table 1); details: post-emergence spray at 4-5 leaf stage, 250 g/ha active ingredient with 450 kg/ha water, rated after 3 weeks in greenhouse
Outline: as §2

effect on crop, Wheat (level) [6]	Compound	Bidens tripartite weed control effect (activity level) [1]	Scirpus juncoides weed control effect (activity level) [2]	Sagittaria trifolia weed control effect (activity level) [3]	Echinochloa weed control effect (activity level) [4]	effect on crop, Corn (level) [5]	weed control effect, Green foxtail (level) [7]	weed control effect, Bidens bipinnata (level) [8]	weed control effect, Rorippa indica (level) [9]	weed control effect, Crab grass (level) [10]	weed control effect, Echinochloa (level) [11]	weed control effect, Indian mallow (level) [12]	effect on crop, Rice (level) [13]
0	CCOc1c(C(=O)Oc2c(C(=O)c3ccc(C(F)(F)F)c(-n4cccn4)c3Cl)c(C)nn2C)cnn1C [Compound 071]	8 (Level 8: above 90% growth control rate)	10	10	10	1 (Level 1: below 5% growth control rate)	8 (Level 8: above 90% growth control rate)	7 (Level 7: above 80% growth control rate)	10	4 (Level 4: above 50% growth control rate)	6 (Level 6: above 70% growth control rate)	10	1 (Level 1: below 5% growth control rate)
0	CCOc1c(C(=O)Oc2c(C(=O)c3ccc(C(F)(F)F)c(-n4cc(C)cn4)c3Cl)cnn2C)cnn1C [Compound 081]	10	10	10	10	2 (Level 2: 5%-20% growth control rate)	8 (Level 8: above 90% growth control rate)	10	10	7 (Level 7: above 80% growth control rate)	10	10	3 (Level 3: above 20% growth control rate)

Further lines, the compound ahead of its results:

Compound	effect on crop, Wheat (level) [6]	Bidens tripartite weed control effect (activity level) [1]	Scirpus juncoides weed control effect (activity level) [2]	Sagittaria trifolia weed control effect (activity level) [3]	Echinochloa weed control effect (activity level) [4]	effect on crop, Corn (level) [5]	weed control effect, Green foxtail (level) [7]	weed control effect, Bidens bipinnata (level) [8]	weed control effect, Rorippa indica (level) [9]	weed control effect, Crab grass (level) [10]	weed control effect, Echinochloa (level) [11]	weed control effect, Indian mallow (level) [12]	effect on crop, Rice (level) [13]
CCOc1c(C(=O)Oc2c(C(=O)c3ccc(C(F)(F)F)c(N4CCCCC4=O)c3Cl)c(C)nn2C)cnn1C [Compound 037]	0	10	10	10	10	0	10	10	10	6 (Level 6: above 70% growth control rate)	10	10	3 (Level 3: above 20% growth control rate)
Cc1nn(C)c(O)c1C(=O)c1ccc(C(F)(F)F)c(N2CCCCC2=O)c1Cl [Compound 035]	0	9 (Level 9: above 95% growth control rate)	10	9 (Level 9: above 95% growth control rate)	8 (Level 8: above 90% growth control rate)	–	10	9 (Level 9: above 95% growth control rate)	9 (Level 9: above 95% growth control rate)	8 (Level 8: above 90% growth control rate)	7 (Level 7: above 80% growth control rate)	9 (Level 9: above 95% growth control rate)	6 (Level 6: above 70% growth control rate)
CCOc1c(C(=O)Oc2c(C(=O)c3ccc(C(F)(F)F)c(-n4cc(C)cn4)c3Cl)c(C3CC3)nn2C)cnn1C [Compound 092]	1 (Level 1: below 5% growth control rate)	9 (Level 9: above 95% growth control rate)	10	10	10	2 (Level 2: 5%-20% growth control rate)	8 (Level 8: above 90% growth control rate)	8 (Level 8: above 90% growth control rate)	10	3 (Level 3: above 20% growth control rate)	6 (Level 6: above 70% growth control rate)	10	2 (Level 2: 5%-20% growth control rate)
Cc1nn(C)cc1C(=O)Oc1c(C(=O)c2ccc(C(F)(F)F)c(N3CCCC3=O)c2Cl)c(C)nn1C [Compound 023]	4 (Level 4: above 50% growth control rate)	10	10	10	10	5 (Level 5: above 60% growth control rate)	10	10	10	10	10	10	4 (Level 4: above 50% growth control rate)
CCn1nc(C)c(C(=O)c2ccc(C(F)(F)F)c(-n3cccn3)c2Cl)c1OC(=O)c1cn(C)nc1C [Compound 129]	1 (Level 1: below 5% growth control rate)	10	10	10	10	3 (Level 3: above 20% growth control rate)	10	9 (Level 9: above 95% growth control rate)	10	0	10	3 (Level 3: above 20% growth control rate)	6 (Level 6: above 70% growth control rate)
